Experiment: Pharmacokinetic study in the rat
Type: in vivo
Experimental: Aqueous solution formulations of test compounds were prepared in 0.1% lactic acid at a pH of between about 5 and about 6. Male Sprague-Dawley rats (CD strain, Charles River Laboratories, Wilmington, Mass.) were dosed with test compounds via intravenous administration (IV) at a dose of 2.5 mg/kg or by oral gavage (PO) at a dose of 5 mg/kg. The dosing volume was 1 mL/kg for IV and 2 mL/kg for PO administration. Serial blood samples were collected from animals pre-dose, and at 2 (IV only), 5, 15, and 30 min, and at 1, 2, 4, 8, and 24 hours post-dose. Concentrations of test compounds in blood plasma were determined by liquid chromatography-mass spectrometry analysis (LC-MS/MS) (MDS SCIEX, API 4000, Applied Biosystems, Foster City, Calif.) with a lower limit of quantitation of 1 ng/mL.
Standard pharmacokinetic parameters were assessed by non-compartmental analysis (Model 201 for IV and Model 200 for PO) using WinNonlin (Version 4.0.1, Pharsight, Mountain View, Calif.). The maximum in the curve of test compound concentration in blood plasma vs. time is denoted Cmax. The area under the concentration vs. time curve from the time of dosing to the last measurable concentration (AUC(0-t)) was calculated by the linear trapezoidal rule. Oral bioavailability (F(%)), i.e. the dose-normalized ratio of AUC(0-t) for PO administration to AUC(0-t) for IV administration, was calculated as: F(%)=AUCPO/AUCIV×DoseIV/DosePO×100%

[1] = male Sprague-Dawley rats, blood plasma, PO 5 mg/kg

CC(=O)N1CCN(CCN2[C@@H]3CC[C@H]2CC(NC(=O)c2nn(C(C)C)c4ccccc24)C3)CC1 (stereo partly drawn) [Example 1, 1-isopropyl-1H-indazole-3-carboxylic acid {(1S,3R,5R)-8-[2-(4-acetylpiperazin-1-yl)ethyl]-8-azabicyclo[3.2.1]oct-3-yl}amide]
AUC(0-t) [1]: 730 ng·h/mL
Cmax [1]: 250 ng/mL
oral bioavailability (F(%)) (rat, PO 5 mg/kg versus IV 2.5 mg/kg, dose-normalized AUC(0-t) ratio): about 100%

Source: US8044045B2, “Indazole-carboxamide compounds as 5-HT4 receptor agonists” (Theravance, Inc., priority 2004, dated 2011)
